Measured values from patent publication US7192950B2, “Benzazepines and related heterocyclic derivatives which are useful as orexin receptor antagonists” (Actelion Pharmaceuticals, Ltd., priority 2000, dated 2007).

How the values were obtained:
human orexin-1 receptor = target: T1, human orexin-1 receptor (Homo sapiens, UniProt O43613); test: Intracellular calcium measurements (FLIPR), OX1 receptor antagonist activity; assay type: cell-based; settings: CHO cells expressing human orexin-1 receptor; 10 nM orexin-A as agonist; fluo-3 calcium signal
T1 construct: expressed in transfected cells; host or cells: CHO cells (G418 selection)
T1 sequence (O43613 1-425): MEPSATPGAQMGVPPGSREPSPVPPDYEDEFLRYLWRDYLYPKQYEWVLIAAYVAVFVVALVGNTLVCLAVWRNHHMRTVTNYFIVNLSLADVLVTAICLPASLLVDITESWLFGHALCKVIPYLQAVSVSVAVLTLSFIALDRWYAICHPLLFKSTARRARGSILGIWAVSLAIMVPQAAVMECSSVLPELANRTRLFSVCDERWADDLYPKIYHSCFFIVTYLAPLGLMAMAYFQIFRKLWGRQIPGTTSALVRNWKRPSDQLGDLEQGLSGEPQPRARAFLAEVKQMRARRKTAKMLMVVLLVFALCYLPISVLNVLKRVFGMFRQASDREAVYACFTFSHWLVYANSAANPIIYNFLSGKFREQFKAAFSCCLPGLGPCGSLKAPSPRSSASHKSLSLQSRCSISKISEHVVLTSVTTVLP
Description: (§1) The OX1 and OX2 receptor antagonist activities of the compounds of general formula (I) were determined in accordance with the following experimental method.
(§2) Intracellular Calcium Measurements
(§3) Chinese hamster ovary (CHO) cells expressing the human orexin-1 receptor and the human orexin-2 receptor, respectively, were grown in culture medium (Ham F-12 with L Glutamine) containing 300 μg/ml G418, 100 U/ml penicillin, 100 μg/ml streptomycin and 10% inactivated foetal calf serum (FCS).
(§4) The cells were seeded at 80'000 cells/well into 96-well black clear bottom sterile plates (Costar) which had been precoated with 1% gelatine in Hanks' Balanced Salt Solution (HBSS). All reagents were from Gibco BRL.
(§5) The seeded plates were incubated overnight at 37° C. in 5% CO2.
(§6) Human orexin-A as an agonist was prepared as 1 mM stock solution in methanol:water (1:1), diluted in HBSS containing 0.1% BSA and 2 mM HEPES for use in the assay at a final concentration of 10 nM.
(§7) Antagonists were prepared as 10 mM stock solution in DMSO, then diluted in 96-well plates, first in DMSO, then in HBSS containing 0.1% bovine serum albumin (BSA) and 2 mM HEPES.
(§8) On the day of the assay, 100 μl of loading medium (HBSS containing 1% FCS, 2 mM HEPES, 5 mM probenecid (Sigma) and 3 μM of the fluorescent calcium indicator fluo-3 AM (1 mM stock solution in DMSO with 10% pluronic acid Molecular Probes)) was added to each well.
(§9) The 96-well plates were incubated for 60 min at 37° C. in 5% CO2. The loading solution was then aspirated and cells were washed 3 times with 200 μl HBSS containing 2.5 mM probenecid, 0.1% BSA, 2 mM HEPES. 100 μl of that same buffer was left in each well.
(§10) Within the Fluorescent Imaging Plate Reader (FLIPR, Molecular Devices), antagonists were added to the plate in a volume of 50 μl, incubated for 20 min and finally 100 μl of agonist was added. Fluorescence was measured for each well at 1 second intervals, and the height of each fluorescence peak was compared to the height of the fluorescence peak induced by 10 nM orexin-A with buffer in place of antagonist. For each antagonist; IC50 values (the concentration of compound needed to inhibit 50% of the agonistic response) were determined.

human orexin-2 receptor = target: T2, human orexin-2 receptor (Homo sapiens, UniProt O43614); test: Intracellular calcium measurements (FLIPR), OX2 receptor antagonist activity; assay type: cell-based; settings: CHO cells expressing human orexin-2 receptor; 10 nM orexin-A as agonist; fluo-3 calcium signal
T2 construct: expressed in transfected cells; host or cells: CHO cells (G418 selection)
T2 sequence (O43614 1-444): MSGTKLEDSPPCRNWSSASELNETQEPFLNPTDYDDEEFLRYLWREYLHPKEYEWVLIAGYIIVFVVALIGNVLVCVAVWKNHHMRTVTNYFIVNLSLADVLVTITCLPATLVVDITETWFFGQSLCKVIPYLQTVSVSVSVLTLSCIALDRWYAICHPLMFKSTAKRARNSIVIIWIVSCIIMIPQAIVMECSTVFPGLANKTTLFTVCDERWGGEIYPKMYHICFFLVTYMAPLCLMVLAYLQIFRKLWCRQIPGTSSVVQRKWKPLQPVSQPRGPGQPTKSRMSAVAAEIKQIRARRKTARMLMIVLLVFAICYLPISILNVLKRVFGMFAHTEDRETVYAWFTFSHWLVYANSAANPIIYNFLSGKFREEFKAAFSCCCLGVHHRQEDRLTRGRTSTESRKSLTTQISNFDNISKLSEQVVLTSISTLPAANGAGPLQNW
Description: as §1, §2, §3, §4, §5, §6, §7, §8, §9, §10

Row | IC50 (human orexin-1 receptor) [nM] | IC50 (human orexin-2 receptor) [nM] | SMILES
1 | 64 | 7900 | COc1ccc(CC2c3cc(OC)c(OC)cc3OCCN2CC(=O)NC2CCc3ccccc32)cc1OC (racemic) [Example 5, 2-[5-(3,4-Dimethoxy-benzyl)-7,8-dimethoxy-2,3-dihydro-5H-benzo[f][1,4]oxazepin-4-yl]-N-indan-1-yl-acetamide]
2 | 99 | > 10000 | COc1ccc(CC2c3cc(OC)c(OC)cc3CCCN2CC(=O)NC2Cc3ccccc3C2)cc1OC (centres unmarked) [Example 3, 2-[1-(3,4-Dimethoxy-benzyl)-7,8-dimethoxy-1,3,4,5-tetrahydro-benzo[c]azepin-2-yl]-N-indan-2-yl-acetamide]
3 | 23 | 1240 | COc1ccc(CC2c3cc(OC)c(OC)cc3CCCN2CC(=O)NC2CCc3ccccc32)cc1OC (centres unmarked) [Example 9, 2-[1-(3,4-Dimethoxy-benzyl)-7,8-dimethoxy-1,3,4,5-tetrahydro-benzo[c]azepin-2-yl]-N-indan-1-yl-acetamide]
4 | 23 | 231 | COc1ccc(CC2c3cc(OC)c(OC)cc3CCCN2C(C(=O)NC2Cc3ccccc3C2)c2ccccc2)cc1OC (centres unmarked) [Example 20, 2-[1-(3,4-Dimethoxy-benzyl)-7,8-dimethoxy-1,3,4,5-tetrahydro-benzo[c]azepin-2-yl]-N-indan-2-yl-2-phenyl-acetamide]
5 | 21 | 189 | COc1ccc(CC2c3cc(OC)c(OC)cc3CCCN2C(C(=O)NCc2ccc3c(c2)OCO3)c2ccccc2)cc1OC (centres unmarked) [Example 23, N-Benzo[1,3]dioxol-5-ylmethyl-2-[1-(3,4-dimethoxy-benzyl)-7,8-dimethoxy-1,3,4,5-tetrahydro-benzo[c]azepin-2-yl]-2-phenyl-acetamide]
6 | 41 | 241 | COc1ccc(CC2c3cc(OC)c(OC)cc3CCCN2C(C(=O)NCc2ccco2)c2ccccc2)cc1OC (centres unmarked) [Example 25, 2-[1-(3,4-Dimethoxy-benzyl)-7,8-dimethoxy-1,3,4,5-tetrahydro-benzo[c]azepin-2-yl]-N-furan-2-ylmethyl-2-phenyl-acetamide]
7 | 41 | 9190 | COC(=O)CCNC(=O)C(c1ccccc1)N1CCCc2cc(OC)c(OC)cc2C1Cc1ccc(OC)c(OC)c1 (centres unmarked) [Example 34, 3-{2-[1-(3,4-Dimethoxy-benzyl)-7,8-dimethoxy-1,3,4,5-tetrahydro-benzo[c]azepin-2-yl]-2-phenyl-acetylamino}-propionic acid methyl ester]
8 | 32 | 7040 | COc1ccc(CC2c3cc(OC)c(OC)cc3CCCN2C(C(=O)NCc2nc3ccccc3[nH]2)c2ccccc2)cc1OC (centres unmarked) [Example 35, N-(1H-Benzoimidazol-2-ylmethyl)-2-[1-(3,4-dimethoxy-benzyl)-7,8-dimethoxy-1,3,4,5-tetrahydro-benzo[c]azepin-2-yl]-2-phenyl-acetamide]
9 | 12 | 174 | COc1ccc(CC2c3cc(OC(C)C)c(OC)cc3CCCN2CC(=O)NC2CCc3ccccc32)cc1OC (centres unmarked) [Example 68, 2-[1-(3,4-Dimethoxy-benzyl)-8-isopropoxy-7-methoxy-1,3,4,5-tetrahydro-benzo[c]azepin-2-yl]-N-indan-1-yl-acetamide]
10 | 9 | 349 | COc1ccc(CC2c3cc(OCC(F)F)c(OC)cc3CCCN2CC(=O)NC2CCc3ccccc32)cc1OC (centres unmarked) [Example 69, 2-[8-(2,2-Difluoro-ethoxy)-1-(3,4-dimethoxy-benzyl)-7-methoxy-1,3,4,5-tetrahydro-benzo[c]azepin-2-yl]-N-indan-1-yl-acetamide]
